The values below are quoted from earlier work in paper PMC5590095 (Chemical Science, 2017).

The test system of the data set is tubulin.

With Celogentin C, the “inhibitory activity against tubulin polymerization” value is “inhibitory activity against tubulin polymerization”.
